Data as given in PubChem BioAssay (NCI).
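Growth conditions: 96-well plates. Treatment: test compound, 48 hours, 5 concentrations. Analysis: linear interpolation between bracketing concentrations; unreached endpoints set to highest concentration. GI50 = concentration required for 50% inhibition of growth. TGI denotes the concentration required for complete inhibition of growth.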

What was measured:
Test in all cases: NCI-60 cell line screen, 48 h
[1] = tested on: 786-0 renal
[2] = tested on: A498 renal
[3] = tested on: A549 NSCLC
[4] = tested on: ACHN renal
[5] = tested on: BT-549 breast
[6] = tested on: CAKI-1 renal
[7] = tested on: CCRF-CEM leukemia
[8] = tested on: COLO 205 colon
[9] = tested on: DU-145 prostate
[10] = tested on: EKVX NSCLC
[11] = tested on: HCC-2998 colon
[12] = tested on: HCT-116 colon
[13] = tested on: HCT-15 colon
[14] = tested on: HL-60(TB) leukemia
[15] = tested on: HOP-62 NSCLC
[16] = tested on: HOP-92 NSCLC
[17] = tested on: HS 578T breast
[18] = tested on: HT29 colon
[19] = tested on: IGROV1 ovarian
[20] = tested on: K-562 leukemia
[21] = tested on: KM12 colon
[22] = tested on: LOX IMVI melanoma
[23] = tested on: M14 melanoma
[24] = tested on: MALME-3M melanoma
[25] = tested on: MCF7 breast
[26] = tested on: MDA-MB-231 breast
[27] = tested on: MDA-MB-435
[28] = tested on: MOLT-4 leukemia
[29] = tested on: NCI-H226 lung
[30] = tested on: NCI-H23 lung
[31] = tested on: NCI-H460 lung
[32] = tested on: OVCAR-3 ovarian
[33] = tested on: OVCAR-4 ovarian
[34] = tested on: OVCAR-5 ovarian
[35] = tested on: OVCAR-8 ovarian
[36] = tested on: PC-3 prostate
[37] = tested on: RPMI-8226 leukemia
[38] = tested on: RXF 393 renal
[39] = tested on: SF-268 CNS
[40] = tested on: SF-295 CNS
[41] = tested on: SF-539 CNS
[42] = tested on: SK-MEL-2 melanoma
[43] = tested on: SK-MEL-5 melanoma
[44] = tested on: SK-OV-3 ovarian
[45] = tested on: SN12C renal
[46] = tested on: SNB-19 CNS
[47] = tested on: SNB-75 CNS
[48] = tested on: SR leukemia
[49] = tested on: SW-620 colon
[50] = tested on: T-47D breast
[51] = tested on: TK-10 renal
[52] = tested on: U251 CNS
[53] = tested on: UACC-62 melanoma
[54] = tested on: UO-31 renal

COc1ccc2c(c1)NC(=O)CN2c1nc(C)nc2ccccc12
GI50 [1]: 3.46 nM | TGI [1]: > 100000 nM | GI50 [2]: 0.376 nM | GI50 [3]: 0.588 nM | TGI [3]: > 100000 nM | GI50 [4]: 0.926 nM | TGI [4]: > 100000 nM | GI50 [5]: 2.1 nM | GI50 [6]: 0.497 nM | TGI [6]: > 100000 nM | GI50 [7]: 0.551 nM | TGI [7]: > 100000 nM | GI50 [8]: 0.322 nM | TGI [8]: 1.2 nM | TGI [9]: > 100000 nM | TGI [10]: > 100000 nM | GI50 [11]: 0.371 nM | TGI [11]: 34200 nM | GI50 [12]: 0.369 nM | TGI [12]: > 100000 nM | GI50 [13]: 0.413 nM | TGI [13]: > 100000 nM | GI50 [14]: 0.361 nM | TGI [14]: 1.51 nM | GI50 [15]: 0.69 nM | TGI [15]: > 100000 nM | GI50 [16]: 49500 nM | TGI [16]: > 100000 nM | GI50 [17]: 0.601 nM | TGI [17]: > 100000 nM | GI50 [18]: 0.307 nM | GI50 [19]: 0.829 nM | TGI [19]: 74900 nM | GI50 [20]: 0.359 nM | TGI [20]: > 100000 nM | GI50 [21]: 0.353 nM | TGI [21]: > 100000 nM | GI50 [22]: 0.526 nM | TGI [22]: > 100000 nM | GI50 [23]: 0.336 nM | TGI [23]: > 100000 nM | TGI [24]: > 100000 nM | GI50 [25]: 0.363 nM | TGI [25]: > 100000 nM | GI50 [26]: 0.914 nM | TGI [26]: > 100000 nM | GI50 [27]: 0.208 nM | TGI [27]: 0.484 nM | GI50 [28]: 0.605 nM | TGI [28]: > 100000 nM | TGI [29]: > 100000 nM | GI50 [30]: 0.458 nM | TGI [30]: > 100000 nM | GI50 [31]: 0.397 nM | TGI [31]: > 100000 nM | GI50 [32]: 0.266 nM | TGI [32]: 0.746 nM | TGI [33]: > 100000 nM | TGI [34]: > 100000 nM | GI50 [35]: 0.524 nM | TGI [35]: > 100000 nM | GI50 [36]: 0.636 nM | TGI [36]: > 100000 nM | GI50 [37]: 0.603 nM | TGI [37]: > 100000 nM | TGI [38]: > 100000 nM | GI50 [39]: 0.788 nM | TGI [39]: > 100000 nM | GI50 [40]: 0.318 nM | GI50 [41]: 0.298 nM | TGI [41]: 1.44 nM | TGI [42]: > 100000 nM | GI50 [43]: 0.4 nM | TGI [43]: 1.86 nM | GI50 [44]: 0.409 nM | TGI [44]: 7190 nM | GI50 [45]: 1.01 nM | TGI [45]: > 100000 nM | GI50 [46]: 0.655 nM | TGI [46]: > 100000 nM | GI50 [47]: 0.36 nM | TGI [47]: > 100000 nM | TGI [48]: > 100000 nM | GI50 [49]: 0.487 nM | TGI [49]: > 100000 nM | GI50 [50]: 5890 nM | TGI [50]: > 100000 nM | TGI [51]: > 100000 nM | GI50 [52]: 0.437 nM | TGI [52]: > 100000 nM | GI50 [53]: 0.432 nM | TGI [53]: > 100000 nM | TGI [54]: > 100000 nM
